Counter-ions that a name gives are not always drawn. Some results are limits rather than exact numbers.

The first experiment concerns HIV wild type (WTRVA). As to the kind of experiment: HeLa cell assay, wild type virus (WTRVA). It is filed as cell-based, HIV-1. Details: scale not given here. Conditions: Human immunodeficiency virus 1, HeLa, HeLa cell assay; read-out: IC50 against WTRVA.
For `CC(C)c1cc(C#N)cc(Oc2c(Cl)ccc(CNC(=O)c3[nH]cnc3Cl)c2F)c1` [Example 159, 4-chloro-N-[(4-chloro-3-{[3-cyano-5-(1-methylethyl)phenyl]oxy}-2-fluorophenyl)methyl]-1H-imidazole-5-carboxamide], the IC50 is less than 10 nM.
As to `CCNc1nc(Cl)c(C(=O)NCc2ccc(Cl)c(Oc3cc(Cl)cc(C#N)c3)c2F)[nH]1` [Example 362, 4-chloro-N-({4-chloro-3-[(3-chloro-5-cyanophenyl)oxy]-2-fluorophenyl}methyl)-2-(ethylamino)-1H-imidazole-5-carboxamide trifluoroacetate], the IC50 was less than 10 nM.
On the same count and under the same terms, to `N#Cc1cc(Cl)cc(Oc2c(Cl)ccc(CNC(=O)c3[nH]ccc3Cl)c2F)c1` [Example 128, 3-chloro-N-({4-chloro-3-[(3-chloro-5-cyanophenyl)oxy]-2-fluorophenyl}methyl)-1H-pyrrole-2-carboxamide] belongs less than 10 nM; to `N#Cc1cc(Cl)cc(Oc2c(Br)ccc(CNC(=O)c3[nH]cnc3Cl)c2F)c1` [Example 378, N-({4-bromo-3-[(3-chloro-5-cyanophenyl)oxy]-2-fluorophenyl}methyl)-4-chloro-1H-imidazole-5-carboxamide], less than 10 nM; to `N#Cc1cc(Cl)cc(Oc2c(Cl)ccc(CNC(=O)c3[nH]c(N)nc3Br)c2F)c1` [Example 235, 2-amino-4-bromo-N-({4-chloro-3-[(3-chloro-5-cyanophenyl)oxy]-2-fluorophenyl}methyl)-1H-imidazole-5-carboxamide trifluoroacetate], less than 10 nM.
Take `N#Cc1cc(CN2CCOCC2)cc(Oc2c(Cl)ccc(CNC(=O)c3[nH]cnc3Cl)c2F)c1` [Example 383, 4-chloro-N-[(4-chloro-3-{[3-cyano-5-(4-morpholinylmethyl)phenyl]oxy}-2-fluorophenyl)methyl]-1H-imidazole-5-carboxamide]: the IC50 was less than 10 nM.
`Cc1nc(Cl)c(C(=O)NCc2cc(C#N)c(Cl)c(Oc3cc(Cl)cc(C#N)c3)c2F)[nH]1` [Example 304, 4-chloro-N-({4-chloro-3-[(3-chloro-5-cyanophenyl)oxy]-5-cyano-2-fluorophenyl}methyl)-2-methyl-1H-imidazole-5-carboxamide trifluoroacetate]: the IC50 is less than 10 nM.
As for `Cc1cc(C#N)cc(Oc2c(Br)ccc(CNC(=O)c3[nH]c(N)nc3Cl)c2F)c1` [Example 240, 2-amino-N-({4-bromo-3-[(3-cyano-5-methylphenyl)oxy]-2-fluorophenyl}methyl)-4-chloro-1H-imidazole-5-carboxamide trifluoroacetate], the IC50 is less than 10 nM.
Consider `Cc1nc(Cl)c(C(=O)NCc2ccc(Cl)c(Oc3cc(C#N)cc(C(F)F)c3)c2F)[nH]1` [Example 300, 4-chloro-N-[(4-chloro-3-{[3-cyano-5-(difluoromethyl)phenyl]oxy}-2-fluorophenyl)methyl]-2-methyl-1H-imidazole-5-carboxamide trifluoroacetate], for which the IC50 was less than 10 nM.
Still for that read-out and setting: then `N#Cc1cc(Oc2c(Cl)ccc(CNC(=O)c3[nH]c(N)nc3Cl)c2F)cc(C(F)F)c1` [Example 327, 2-amino-4-chloro-N-[(4-chloro-3-{[3-cyano-5-(difluoromethyl)phenyl]oxy}-2-fluorophenyl)methyl]-1H-imidazole-5-carboxamide trifluoroacetate], with less than 10 nM; and `CCc1ccc(CNC(=O)c2[nH]c(C)nc2Cl)c(F)c1Oc1cc(Cl)cc(C#N)c1` [Example 249, 4-chloro-N-({3-[(3-chloro-5-cyanophenyl)oxy]-4-ethyl-2-fluorophenyl}methyl)-2-methyl-1H-imidazole-5-carboxamide], with less than 10 nM.
On to `C#Cc1cc(Cl)cc(Oc2c(Cl)ccc(CNC(=O)c3[nH]cnc3Cl)c2F)c1` [Example 293, 4-chloro-N-({4-chloro-3-[(3-chloro-5-ethynylphenyl)oxy]-2-fluorophenyl}methyl)-1H-imidazole-5-carboxamide], for which the IC50 was less than 10 nM.

Staying with this experiment, now noted: Human immunodeficiency virus 1, HeLa, HeLa-CD4-LTR-β-gal cells, wild type virus; read-out: WTRVA activity level.
As for `N#Cc1cc(Cl)cc(Oc2c(Cl)ccc(CNC(=O)c3cc4ccc(N)cc4[nH]3)c2F)c1` [Example 123, 6-amino-N-({4-chloro-3-[(3-chloro-5-cyanophenyl)oxy]-2-fluorophenyl}methyl)-1H-indole-2-carboxamide trifluoroacetate], the IC50 was less than 10 nM.
`Cn1cncc1C(=O)NCc1ccc(Cl)c(Oc2cc(Cl)cc(C#N)c2)c1F` [Example 67, N-({4-chloro-3-[(3-chloro-5-cyanophenyl)oxy]-2-fluorophenyl}methyl)-1-methyl-1H-imidazole-5-carboxamide trifluoroacetate]: the IC50 lay within 10 to 1000 nM.
As to `N#Cc1cc(Cl)cc(Oc2c(Cl)ccc(CNC(=O)c3cc4cc(Cl)ccc4[nH]3)c2F)c1` [Example 109, 5-chloro-N-({4-chloro-3-[(3-chloro-5-cyanophenyl)oxy]-2-fluorophenyl}methyl)-1H-indole-2-carboxamide], the IC50 lay within 10 to 1000 nM.
Same read-out and setting: then `N#Cc1cc(Cl)cc(Oc2c(Cl)ccc(CNC(=O)c3cc4ccc(OCCO)cc4[nH]3)c2F)c1` [Example 142, N-({4-chloro-3-[(3-chloro-5-cyanophenyl)oxy]-2-fluorophenyl}methyl)-6-[(2-hydroxyethyl)oxy]-1H-indole-2-carboxamide], with less than 10 nM; and `N#Cc1cc(Cl)cc(Oc2c(Cl)ccc(CNC(=O)c3cc4cc(OC[C@H]5CNCCO5)ccc4[nH]3)c2F)c1` [Example 24, N-({4-Chloro-3-[(3-chloro-5-cyanophenyl)oxy]-2-fluorophenyl}methyl)-5-{[(2R)-2-morpholinylmethyl]oxy}-indole-2-carboxamide], with less than 10 nM; and `CC(=O)Nc1ccc2[nH]c(C(=O)NCc3ccc(Cl)c(Oc4cc(Cl)cc(C#N)c4)c3F)cc2c1` [Example 121, 5-(acetylamino)-N-({4-chloro-3-[(3-chloro-5-cyanophenyl)oxy]-2-fluorophenyl}methyl)-1H-indole-2-carboxamide], with less than 10 nM.
Consider `Cn1cnc(C(=O)NCc2ccc(Cl)c(Oc3cc(Cl)cc(C#N)c3)c2F)c1` [Example 64, N-({4-chloro-3-[(3-chloro-5-cyanophenyl)oxy]-2-fluorophenyl}methyl)-1-methyl-1H-imidazole-4-carboxamide trifluoroacetate], for which the IC50 was 10 to 1000 nM.
Take `CN1CCCC1CCOc1ccc2[nH]c(C(=O)NCc3ccc(Cl)c(Oc4cc(Cl)cc(C#N)c4)c3F)cc2c1` (stereo not shown) [Example 104, N-({4-chloro-3-[(3-chloro-5-cyanophenyl)oxy]-2-fluorophenyl}methyl)-5-{[2-(1-methyl-2-pyrrolidinyl)ethyl]oxy}-1H-indole-2-carboxamide]: the IC50 is less than 10 nM.
Take `N#Cc1cc(Cl)cc(Oc2c(Cl)ccc(CNC(=O)c3cc4ccc(Cl)cc4[nH]3)c2F)c1` [Example 110, 6-chloro-N-({4-chloro-3-[(3-chloro-5-cyanophenyl)oxy]-2-fluorophenyl}methyl)-1H-indole-2-carboxamide]: the IC50 fell in the range of 10 to 1000 nM.
The same measure, in the same setting: then `N#Cc1cc(Cl)cc(Oc2c(Cl)ccc(CNC(=O)c3[nH]ccc3Cl)c2F)c1` [Example 128, 3-chloro-N-({4-chloro-3-[(3-chloro-5-cyanophenyl)oxy]-2-fluorophenyl}methyl)-1H-pyrrole-2-carboxamide], with less than 10 nM.
As for `N#Cc1cc(Cl)cc(Oc2c(Cl)ccc(CNC(=O)c3cc4cc(NC(=O)c5cccnc5)ccc4[nH]3)c2F)c1` [Example 115, N-({4-chloro-3-[(3-chloro-5-cyanophenyl)oxy]-2-fluorophenyl}methyl)-5-[(3-pyridinylcarbonyl)amino]-1H-indole-2-carboxamide], the IC50 is less than 10 nM.
On the same count and under the same terms, to `CC(=O)Nc1ccc2cc(C(=O)NCc3ccc(Cl)c(Oc4cc(Cl)cc(C#N)c4)c3F)[nH]c2c1` [Example 122, 6-(acetylamino)-N-({4-chloro-3-[(3-chloro-5-cyanophenyl)oxy]-2-fluorophenyl}methyl)-1H-indole-2-carboxamide] belongs less than 10 nM.
Consider `CCc1nc(Cl)c(C(=O)NCc2ccc(Cl)c(Oc3cc(Cl)cc(C#N)c3)c2F)[nH]1` [Example 77, 4-chloro-N-({4-chloro-3-[(3-chloro-5-cyanophenyl)oxy]-2-fluorophenyl}methyl)-2-ethyl-1H-imidazole-5-carboxamide trifluoroacetate], for which the IC50 was less than 10 nM.
Still for that read-out and setting: to `N#Cc1cc(Cl)cc(Oc2c(Cl)ccc(CNC(=O)c3cc4c5c(ccc4[nH]3)N(C(N)=O)CC5)c2F)c1` [Example 44, N^2-({4-chloro-3-[(3-chloro-5-cyanophenyl)oxy]-2-fluorophenyl}methyl)-7,8-dihydropyrrolo[3,2-e]indole-2,6(3H)-dicarboxamide] belongs less than 10 nM; to `N#Cc1cc(Cl)cc(Oc2c(Cl)ccc(CNC(=O)c3csc(-c4ccncc4)n3)c2F)c1` [Example 88, N-({4-chloro-3-[(3-chloro-5-cyanophenyl)oxy]-2-fluorophenyl}methyl)-2-(4-pyridinyl)-1,3-thiazole-4-carboxamide trifluoroacetate], 10 to 1000 nM.
In the case of `COc1ccc(C(=O)NCc2ccc(Cl)c(Oc3cc(Cl)cc(C#N)c3)c2F)cn1` [Example 42, N-({4-chloro-3-[(3-chloro-5-cyanophenyl)oxy]-2-fluorophenyl}methyl)-6-(methyloxy)-3-pyridinecarboxamide], the IC50 is 10 to 1000 nM.
Turning to `COc1ccc2[nH]c(C(=O)NCc3ccc(Cl)c(Oc4cc(Cl)cc(C#N)c4)c3F)cc2c1Br` [Example 73, 4-bromo-N-({4-chloro-3-[(3-chloro-5-cyanophenyl)oxy]-2-fluorophenyl}methyl)-5-(methyloxy)-1H-indole-2-carboxamide trifluoroacetate], the IC50 was 10 to 1000 nM.
Still for that read-out and setting: then `N#Cc1cc(Cl)cc(Oc2c(Cl)ccc(CNC(=O)c3cnccn3)c2F)c1` [Example 87, N-({4-chloro-3-[(3-chloro-5-cyanophenyl)oxy]-2-fluorophenyl}methyl)-2-pyrazinecarboxamide trifluoroacetate], with less than 10 nM; and `CC(C)(C)OC(=O)N1CCO[C@@H](COc2ccc3[nH]c(C(=O)NCc4ccc(Cl)c(Oc5cc(Cl)cc(C#N)c5)c4F)cc3c2)C1` [Example 23, 1,1-dimethylethyl (2R)-2-{[(2-{[({4-chloro-3-[(3-chloro-5-cyanophenyl)oxy]-2-fluorophenyl}methyl)amino]carbonyl}-1H-indol-5-yl)oxy]methyl}-4-morpholinecarboxylate], with 10 to 1000 nM.

The record behind these values is patent US8304419B2, “Chemical compounds” (priority 2007, dated 2012).
